Tests used:
fibroblasts [1] = test: Mechanical alteration of fibroblasts (cyclic stretching of coated polypropylene meshes); format: cell-based; settings: cyclic stretching, day 7, day 21, 8 weeks, compared with native FA
Description: In order to simulate the effects of chronic shear forces on a healing wound, an in vitro model was established. A flat balloon was placed on the bottom of a Petri dish. A silicone sheet was placed above and sealed with the side of the Petri dish. Then a 3 mm agar layer was casted on top of the sheet. Commercially available polypropylene meshes for hernia repair (microporous mesh, a low-weight and macroporous mesh with absorbable polyglactin filaments, and a heavy-weight and microporous mesh) were placed on the agar plates and fixed at 4 points at the side of the Petri dish. This setting enabled stretching of the meshes by filling the balloons with air, which was performed at 10-second intervals using an automated pumping device. The model can be used to evaluate the effect of three-dimensional (3D) shear forces on cell growth during cell cultivation. Preincubated suspensions of fibroblasts (1.5×10(5) cells) in a culture medium (10% FCS) were added to the culture dishes and allowed to grow for 48 hours. Cyclic stretching was started at day 3. Histological analysis was performed from the central portions of the meshes at day 7, at day 21, and after 8 weeks. The scaffolds were detached from the culture plate and carefully rinsed. Then, they were cut into pieces, casted, and further processed for standard histology and immunohistology. Care was taken to achieve a cutting plane that was vertical to the surface plane of the meshes. Histological analysis evaluated the cellularity, the content of extra cellular matrix (ECM), and the magnitude of protein synthesis. Meshes were dip-coated with native and nitro fatty acids or left blank in the same manner as in example 1. The uncoated meshes served as controls.

[2] = test system: human umbellical endothelial cells (HUVEC); test: Adhesion, propagation and growth of endothelial cells on coated polystyrene films; format: cell-based; settings: days 3, 7, 14, compared with native FA
Protocol: Polystyrene scaffolds were prepared and pretreated in the same manner as performed in example 1 by using the same nitrocarboxylic acids as listed in table 1. The film samples were placed in a culture dish containing a gel matrix, in which human umbellical endothelial cells (HUVEC) had been allowed to grow to confluence. The culture medium consisted of 5% FCS, which was replaced every 5 days. Cultivation was performed according to standard conditions. Films were evaluated at days 3, 7, and 14 after careful extraction from the culture dishes, rinsing with saline solution, and staining with methylene blue. Using a reflected light microscope, the films were immediately examined to evaluate the following: Propagation of cells to the film center, cell confluidity, multilayer formation, and cell shape.

human dermal fibroblasts = test: Extra cellular matrix production (collagen-1) in response to TGF-β2 in dermal fibroblasts; format: cell-based; settings: 10 and 50 μmol, TGF-β2 25 ng/ml, 48 hours; compared with native FA
Protocol: In order to determine whether PPRA gamma stimulation due to nitrated fatty acids plays a role in the inventive inhibition of an aggressive healing pattern to an irritating stimulus, human dermal fibroblasts were investigated. A dominant-negative PPAR gamma mutant (L466A) cell clone was generated by polymerase chain reaction-based site-directed mutagenesis. Presence of PPAR gamma or absence was investigated using a PPAR gamma antibody reaction which was determined using an enhanced chemiluminescence detection system. Furthermore, one cell series was incubated with a selective irreversible PPAR gamma ligand (GW9662, 1 μmol), which effectively blocks PPAR gamma receptors.
Sequential cultivation of human dermal fibroblasts was performed in EMEM containing 5 mM glucose supplemented with 10% FCS under standard cultivation conditions. Cells were allowed to grow to confluence in a 96-well plate. Wild-type fibroblasts and PPAR gamma deficient fibroblasts were investigated by a set-up of 2×10 sample sets comprising: (1) blank control; (2) stimulation control; (3) preincubation with the PPAR gamma antagonist GW9662 (Cayman Chemical); (4) preincubation with the PPAR agonist troglitazone (25 μmol). In 2×4 sample sets, native fatty acids were added to the medium to achieve a final concentration of 10 and 50 μmol, respectively; in another 2×4 sets the nitrated fatty acids were added to the medium in the same concentration, while 2×2 sets served as controls. In 10 of the sets, TGF-β2 was added to the culture medium at a concentration of 25 ng/ml. Cultivation was continued for 48 hours and then processed in order to analyze collagen-1 as measured by enhanced chemiluminescence detection of immuncomplexes.

fibroblasts [3] = test: Biofouling and cell adherence at prosthetic materials (dip-coated polymer films); format: cell-based; settings: compared with native FA (control)
Protocol: Polymer scaffolds (polyurethane, polyvinylchloride, polylactate) which are used as implant materials were investigated. Solid and porous (pore sizes ranging from 50 to 150 micrometer) films of pure polymer scaffolds were cut into pieces (5×5 mm). After cleaning with NaOH and ethanol, they were dip-coated with native and nitrocarboxylic acids. Dip-coated pieces were suspended in a tube filled with argon and heated at 60° C. for 24 hours in the dark. Film pieces with and without coating were placed in a borosilicate glass tube that allowed fixation of two margins of the film pieces at the wall of the glass tube, thus, enabling a upright standing position in the center of the tube. Tubes were filled with various solutions for 12 hours. Solutions consisted of the following: 0.9% saline; 2% bovine albumin; 2% bovine albumin with addition of either fibronectin or laminin; and bovine serum. At the end of the exposure time, tubes were gently washed twice with 0.9% saline solution. One set of films was analyzed for protein absorption using a specific antibody staining method. An identically prepared set of films was further processed for cell cultures. A suspension containing preincubated fibroblasts in 1% FCS was added to the film-containing tubes. The tubes were tilted and adjusted in such a position so that the films were in a vertical orientation within the suspension. […] Tubes had two openings at the upper half (of the tilt tubes) that allowed free exchange of the atmosphere above the solution with the surrounding atmosphere. Sets were incubated at standard conditions for 24, 48, and 96 hours, respectively. Thereafter, films were carefully removed and rinsed with 0.9% saline solution. The cellularity and the shape of the cells on both sides of the films were evaluated after staining (Gimsa) using a reflected light microscope.

adult rats = test: Fibrogenesis after traumatic and thermal tissue damage in dermal wound healing in vivo; parameters: species or system rat; settings: 100 micromol ethanolic solution on wound margins, 8 weeks, compared with native FA
Description: In order to determine the effects of nitrated fatty acids on fibrogenesis in response to traumatic and thermal tissue damage, an in vivo rat model was investigated. Paravertebral scalpel incision (two on each side) of approximately 1 cm in length and a depth of 1 mm were made in 12 anesthetized adult rats (150-200 g) of either sex after disinfection. Bleeding was stopped by manual compression. The entire length of the wound margins of one incision at each side were additionally cauterized using a 3-mm ball electrode connected to a DRE ASG-120 electrosurgical generator. Wound margins of one side were then covered with a sterile ethanolic 0.9% saline solution, or with a sterile ethanolic solution of the fatty acids (100 micromol), or with a sterile ethanolic solution of the nitrated fatty acids (100 micromol) using a sterile brush. A 1×10 mm cotton string that was bathed in the ethanolic solution containing 0.9% saline, native fatty acid or nitrated fatty acids was placed upon the incision site that had been closed by manual adaptation. The adaptation result and the cotton strings were fixed by an adhesive film. The animals were housed and fed according to institutional standards. The wound films were carefully removed after 2 weeks. Animals were euthanized after 8 weeks. The skin wounds were harvested, including the epidermis, dermis, and subcutaneous loose tissue with the surrounding normal tissue. The removed tissues were fixed in formalin and then embedded in paraffin. The cutting plane was vertical to the longitudinal axis of the former incisions. Slices (4-6 μm) were stained with H&E and Masson trichrome staining to evaluate the amount and density of collagen.
Note: key: 0: not superior to native FA (control); +: Superior to native FA; ++: superior to both; +++: outstanding effect.

CCCCC=C(C=CC=CCCCCCCCC(=O)O)[N+](=O)[O-] [compound 11, 13-nitro-octadeca-9,11,13-trienoic acid]
Relative effect on fibroblasts under mechanical alteration (fibroblasts [1]): +
Relative differences: effect on adhesion, propagation and growth of endothelial cells [2]: +
Relative effect on collagen-1 production in response to TGF-β2 (human dermal fibroblasts): +
Relative differences: effect on biofouling and cell adherence (fibroblasts [3]): +
Relative effect on fibrogenesis (scar formation) in dermal wound healing (adult rats): +

CCCCCCCC/C(=C\CCCCCCCC(=O)O)[N+](=O)[O-] [compound 12, 10-nitro-trans-oleic acid]
Relative effect on fibroblasts under mechanical alteration (fibroblasts [1]): +
Relative differences: effect on adhesion, propagation and growth of endothelial cells [2]: +
Relative effect on collagen-1 production in response to TGF-β2 (human dermal fibroblasts): +
Relative differences: effect on biofouling and cell adherence (fibroblasts [3]): +
Relative effect on fibrogenesis (scar formation) in dermal wound healing (adult rats): 0

CCCCCC/C=C(/CCCCCCCC(=O)O)[N+](=O)[O-] [compound 13]
Relative effect on fibroblasts under mechanical alteration (fibroblasts [1]): +
Relative differences: effect on adhesion, propagation and growth of endothelial cells [2]: ++
Relative effect on collagen-1 production in response to TGF-β2 (human dermal fibroblasts): +
Relative differences: effect on biofouling and cell adherence (fibroblasts [3]): +
Relative effect on fibrogenesis (scar formation) in dermal wound healing (adult rats): +

CCCCCC=CCC=C(CC=CCC=CCCCC(=O)O)[N+](=O)[O-] [compound 14, 11-nitro-5,8,11,14-eicosatrienoic acid]
Relative effect on fibroblasts under mechanical alteration (fibroblasts [1]): 0
Relative differences: effect on adhesion, propagation and growth of endothelial cells [2]: +
Relative effect on collagen-1 production in response to TGF-β2 (human dermal fibroblasts): +
Relative differences: effect on biofouling and cell adherence (fibroblasts [3]): +
Relative effect on fibrogenesis (scar formation) in dermal wound healing (adult rats): +

CCCCCC/C=C(\CCCCCCCC(=O)O)[N+](=O)[O-] [compound 16, 9-nitro-9-trans-hexadecenoic acid]
Relative effect on fibroblasts under mechanical alteration (fibroblasts [1]): ++
Relative differences: effect on adhesion, propagation and growth of endothelial cells [2]: +
Relative effect on collagen-1 production in response to TGF-β2 (human dermal fibroblasts): 0
Relative differences: effect on biofouling and cell adherence (fibroblasts [3]): ++
Relative effect on fibrogenesis (scar formation) in dermal wound healing (adult rats): +

CCCCCCCC/C=C(/CCCCCCCCCCCC(=O)O)[N+](=O)[O-] [compound 17, 13-nitro-cis-13-docosenoic acid]
Relative effect on fibroblasts under mechanical alteration (fibroblasts [1]): +
Relative differences: effect on adhesion, propagation and growth of endothelial cells [2]: 0
Relative effect on collagen-1 production in response to TGF-β2 (human dermal fibroblasts): +
Relative differences: effect on biofouling and cell adherence (fibroblasts [3]): +
Relative effect on fibrogenesis (scar formation) in dermal wound healing (adult rats): +

CCCCC/C=C(/C/C=C\C/C=C(/C/C=C\CCCC(=O)O)[N+](=O)[O-])[N+](=O)[O-] [compound 18, 8,14-nitro-cis-5,8,11,14-eicosatetraenoic acid]
Relative effect on fibroblasts under mechanical alteration (fibroblasts [1]): +
Relative differences: effect on adhesion, propagation and growth of endothelial cells [2]: +
Relative effect on collagen-1 production in response to TGF-β2 (human dermal fibroblasts): +
Relative differences: effect on biofouling and cell adherence (fibroblasts [3]): +
Relative effect on fibrogenesis (scar formation) in dermal wound healing (adult rats): +

CCC=CCC=C(CC=CCC=CCC=CCC=C(CCC(=O)O)[N+](=O)[O-])[N+](=O)[O-] [compound 19, 4,16-nitro-docosahexaenoic acid]
Relative effect on fibroblasts under mechanical alteration (fibroblasts [1]): ++
Relative differences: effect on adhesion, propagation and growth of endothelial cells [2]: +
Relative effect on collagen-1 production in response to TGF-β2 (human dermal fibroblasts): +
Relative differences: effect on biofouling and cell adherence (fibroblasts [3]): +
Relative effect on fibrogenesis (scar formation) in dermal wound healing (adult rats): +

CCCCCC=CCC=C(CC=CC/C=C\CCCC(=O)O)[N+](=O)[O-] [compound 22, 11-nitro-cis-5,8,11,14-eicosatetraenoic acid]
Relative effect on fibroblasts under mechanical alteration (fibroblasts [1]): ++
Relative differences: effect on adhesion, propagation and growth of endothelial cells [2]: ++
Relative effect on collagen-1 production in response to TGF-β2 (human dermal fibroblasts): ++
Relative differences: effect on biofouling and cell adherence (fibroblasts [3]): +
Relative effect on fibrogenesis (scar formation) in dermal wound healing (adult rats): ++

Source: US20130039956A1, “USE OF NITROCARBOXYLIC ACIDS FOR THE TREATMENT, DIAGNOSIS AND PROPHYLAXIS OF AGGRESSIVE HEALING PATTERNS” (priority 2010, published 2013)
